Measurements reported in ChEMBL document CHEMBL5724562, “Toxicity screen in isolated B cell assay results for EUbOPEN Chemogenomics Library” (2024).
Positions of bridges follow the written chain, without caps; N, C: chain ends. Non-standard residues stand in square brackets, D forms with d. Residues, ends and D or L forms follow the SMILES beside them. Orn = NCCC[C@H](N)C(=O)O; Mpa = O=C(O)CCS

System: B cell
Test: Cytotoxicity screening of chemical probes in isolated B cell assay. Data is normalized to DMSO control, the cell viability average of replicates are reported. Reduction of ATP level more than 20% indicate compromised cell health status.
Settings: human, 0.1 µM

SMILES	Cell Viability
COc1ccc2cc(OCC3(C(=O)O)CN(C(=O)c4ccc(F)cc4)C3)ccc2c1 [PF-04418948]	98.5812%
O[C@]1(C(F)(F)F)CCCC[C@H]1Nc1ccc(F)cc1 [BAY-390]	101.834%
Cc1cc(C)c(-n2ccn3nc(-c4cccnc4)cc23)cc1NC(=O)c1cc(C#N)cc(S(F)(F)(F)(F)F)c1 [BAY-826]	99.8561%
Cc1c[nH]c2nccc(Oc3c(F)cc(Nc4cc(Cl)nc(N)n4)cc3F)c12 [BAY-549]	99.4175%
CCCCN(CCCC)C(=O)CN1C[C@H](c2cc(OC)c3c(c2)OCO3)[C@@H](C(=O)O)[C@@H]1CC(C)(C)CCC.Cc1ccc(S(=O)(=O)O)cc1	100.019%
Cc1cc(Nc2nccc(C)n2)cc(-c2cnc([C@@]3(O)CC[C@H](C(=O)O)C(C)(C)C3)s2)c1 [MRL-SYKi]	97.9587%

Same assay, conditions: human, 1 µM

SMILES	Cell Viability
Cl.Clc1ccc2nsnc2c1NC1=NCCN1 [TIZANIDINE HYDROCHLORIDE]	103.384%
COc1cc(-c2cn(C)c(=O)c3cnccc23)c(OC)cc1CN(C)C	95.7323%
COCCn1c(C)c(C)s/c1=N\C(=O)C1C(C)(C)C1(C)C	97.5131%
CCN(C(=O)CO)[C@H]1CN(/C(=N\C#N)Nc2cccc(OC(F)F)c2)N=C1c1ccc(Cl)c(Cl)c1	100.495%
CCCCC(=O)N(Cc1ccc(-c2ccccc2-c2nnn[nH]2)cc1)[C@H](C(=O)O)C(C)C	103.145%
N#CC1(c2ccccn2)CCN(Cc2cc(C(=O)O)c(=O)n3ccccc23)CC1 [MSD-M1PAM]	98.7103%
NS(=O)(=O)c1cc(NC(=O)Cc2ccccc2)ccc1Oc1cccc(Cl)c1 [BAY-1797]	95.6935%
Cc1cc2c(cc1N1C(=O)c3cccc4c(CCCO)ccc(c34)C1=O)n(C)c(=O)n2C	92.6096%
CCN(CCO)CCCOc1ccc2c(Nc3cc(CC(=O)Nc4cccc(F)c4)[nH]n3)ncnc2c1 [DEFOSBARASERTIB]	100.387%
C[C@H]1CCCN1Cc1nc2cc(NC(=O)c3ccc4cnccc4c3)ccc2[nH]1	90.4338%
O=C(O)c1n[nH]c2c1C[C@H]1C[C@@H]21	98.0706%
O=C(NCCCN1CCOC1=O)c1cnc(NCc2cc(Br)ccc2Br)nc1NC1CCCC1	100.266%
Clc1cc2c(NC3CCCC3)nnc(-c3ccncc3)c2cc1Cl	99.0979%
Cn1nc(C(F)(F)F)cc1-c1cnc(N2CCc3cc(S(=O)(=O)Nc4c(F)cc(Cl)cc4F)cc(N4CCCC4=O)c32)nc1 [TP-020]	96.7008%
O=C(Nc1cnc(Oc2ccc(F)cc2)nc1)N1CCc2ncccc2[C@@H]1c1ccc(F)cc1 [BAY-899]	98.9586%
CN([C@@H]1CCc2c(CC(=O)O)c3ccccc3n2C1)S(=O)(=O)c1ccc(F)cc1 [MK-7246]	96.8838%
CCOCCn1cc(C(=O)Nc2ccc(-n3nc(-c4cccnc4)cc3C(F)(F)F)cn2)ccc1=O [BI 1935]	94.8333%
Cc1ccc(Cn2nc(C(=O)N[C@@H]3C(C)(C)[C@@H]4CC[C@@]3(C)C4)cc2-c2ccc(Cl)c(C)c2)cc1	95.8945%
Cc1cccc(-c2cnc3occ(-c4ccc(C(=O)O)c(C5CCCC5)c4)c3c2)c1	94.5514%
CCC(=O)N1CCOc2c(cc(-c3ccc(OC)c(OC)c3)cc2OCC2CCCN(C)C2)C1 (stereo unspecified)	98.9735%
Cl.O=C(O)c1cc(-c2ccc(C3CCNCC3)cc2)c2ccc(-c3ccc(C(F)(F)F)cc3)cc2c1	98.0873%
Cc1cnc(-c2cc(Cl)ccc2F)cc1-n1c(=O)n(CC(N)=O)c2cnccc21 [TP-008]	103.993%
CN1CCN(C(=O)C(C)(C)c2ccc(C(=O)Nc3cn4cc(-c5ccncc5)ccc4n3)cc2)CC1 [T3-CLK]	73.6988%

SMILES	Cell Viability
O=C(O)CNC(=O)c1c(O)c2ccccc2n(Cc2ccccc2)c1=O	96.2966%
Cl.O=C([C@@H](Cc1cccc(C(F)(F)F)c1)NS(=O)(=O)c1cc(F)c2c(c1)CCNC2)N1CCCC1	98.8503%
O=C(NCc1ccc(F)cc1)N1CCN2C(=O)OC(c3ccccc3)(c3ccccc3)C2C1 (stereo unspecified)	104.95%
CCNC1(C(N)=O)CCN(c2ncnc3c2nc(-c2ccccc2Cl)n3-c2ccc(Cl)cc2)CC1 [OTENABANT]	101.882%
CCCCN(CCCC)C(=O)CN1C[C@@H](c2cc(OC)c3c(c2)OCO3)[C@H](C(=O)O)[C@H]1CC(C)(C)CCC.Cl	89.8179%
CCOc1nc2cccc(C(=O)O)c2n1Cc1ccc(-c2ccccc2-c2nnn[nH]2)cc1	101.389%
Cc1cc2c(-c3ccco3)cnc(N[C@@H]3CCN(C)C[C@H]3C(=O)NC3CCCCC3)c2[nH]c1=O [GSK789]	93.8199%
C[C@]12N[C@H](Cc3ccccc31)c1ccccc12 [DIZOCILPINE]	102.296%
CCOc1ccc(C[C@H]2NC(=O)CCSSC[C@@H](C(=O)N3CCC[C@H]3C(=O)N[C@@H](CCCN)C(=O)NCC(N)=O)NC(=O)[C@H](CC(N)=O)NC(=O)[C@H]([C@@H](C)O)NC(=O)[C@H]([C@@H](C)CC)NC2=O)cc1 [ATOSIBAN] ([Mpa][dY](Et)ITNCP[Orn]G-NH2; disulfide 1-6)	101.789%
CCc1nc2c(C)cc(C)nc2[nH]1	100.659%
O=C1c2ccc(Nc3ccc(F)cc3F)cc2CCc2ccc(OC[C@H](O)CO)cc21 [Skepinone-L]	96.8594%
CCNC(=O)c1cc2c(N3CCOCC3C)ccnc2[nH]1 (stereo unspecified)	99.1799%
Cc1cn(-c2cc(NC(=O)c3ccc4c(c3)CN(c3cncnc3)C[C@@H]4C)cc(C(F)(F)F)c2)cn1	96.9111%
COc1ccccc1C(=O)Nc1cc2c(cc1N1CCNCC1C)n(C)c(=O)n2C (stereo unspecified)	98.4804%
Cc1sc2c(c1C)C(c1ccc(Cl)cc1)=N[C@@H](CC(=O)OC(C)(C)C)c1nnc(C)n1-2	83.2653%
COc1cc2c(cc1OCCCN1CCCC1)N=C(N)C21CCC1	98.8274%
CNC(=O)c1cc(C(=O)NC2CC2)cn(Cc2ccccc2)c1=O [GSK620]	102.307%
CC(=O)Nc1cccc(-n2c(=O)n(C3CC3)c(=O)c3c(Nc4ccc(I)cc4F)n(C)c(=O)c(C)c32)c1 [TRAMETINIB]	85.5796%
Cc1cc(C)cc([C@@H]2c3cc(C)ccc3NC(=O)CN2C(=O)c2ccc(Br)s2)c1	95.4438%
CO[C@@H](C)c1c(Nc2ccc([C@H](N(C)C(=O)C3CCS(=O)(=O)CC3)C(F)(F)F)cc2)cnc2cc(Cl)nn12 [NVS-MALT1]	90.4509%
CN(C)CC#Cc1ccc(OCCCc2sc(N3CCc4cccc(C(=O)Nc5nc6ccccc6s5)c4C3)nc2C(=O)O)c(F)c1 [A-1155463]	88.7648%
c1cc(OCCCN2CCCCC2)ccc1CN1CCCCC1 [JNJ-5207852]	101.482%
O=C(/C=C/N1C[C@H]2C[C@@H]1CN2c1ccccn1)c1ccccc1O	91.7355%

SMILES	Cell Viability
CC(C)Cc1ccc([C@@H](C)C(=O)NS(C)(=O)=O)cc1 [REPARIXIN]	94.4279%
O=S(=O)(c1ccccc1)c1cnc2c(N3CCNCC3)cccc2c1 [INTEPIRDINE]	101.733%
CC[C@H]1OC(=O)[C@H](C)[C@@H](O[C@H]2C[C@@](C)(OC)[C@@H](O)[C@H](C)O2)[C@H](C)[C@@H](O[C@@H]2O[C@H](C)C[C@H](N(C)C)[C@H]2O)[C@@]2(C)CC(C)=C(O2)[C@H](C)[C@@H](O)[C@]1(C)O	98.1033%
CSc1cc2c(cc1C(F)(F)F)N(C(=O)Nc1cccnc1)CC2	99.9626%
COc1cc(C(=O)N(CCCc2ccccc2)Cc2ccc(CC(=O)O)cc2)cc(OC)c1C	101.167%
O=c1nc(-c2ccccn2)sc2ccccc12 [BTZO-1]	96.3183%
CCC(=O)N[C@H]1CC[C@@H](C(=O)N(C)c2ccc(-c3nc4ccccc4o3)cc2)C1 [BI 99179]	102.234%
CN(C)[C@@H]1CCN(c2cc(-c3ccccc3)nc3ccnn23)C1 [(R)-ZINC-3573]	100.756%
CC(C)NC(=O)N1CC[C@H](NC2=Nc3cc(F)ccc3N(CC(F)F)c3ccc(Cl)cc32)C1	98.1837%
C[C@@H]1CN(c2cc(-c3n[nH]c4ccc(OC5(C)CC5)cc34)ncn2)C[C@H](C)O1 [MLi-2]	96.3526%
CCc1ccccc1C(=O)Nc1n[nH]c2c(C)c(F)c(C3C(C#N)=C(C)N(C)C(C)=C3C#N)cc12 [BAY-3827]	97.1659%
COc1ccc(CCc2nc3cc(-c4c(C)noc4C)ccc3n2C[C@H](C)N2CCOCC2)cc1Cl	94.0053%
O=C(NCCN1CCOCC1)c1ccc2c(c1)C(=O)c1ccc(Nc3ccc(F)c(NC(=O)c4ccccc4)c3)cc1CC2 [FS-694]	91.9931%
COc1cc2c(cc1NS(=O)(=O)c1ccc(Br)cc1C)n(C)c(=O)n2C	96.0295%
C[C@H](c1ccc(F)cc1)N(Cc1cccc(C(=O)O)c1)C(=O)c1cnc2ccccc2c1 [PF-05105679]	99.1446%
CCOC(=O)Nc1cc(-c2ccc(C)c(NS(C)(=O)=O)c2)nn2c(C)nnc12	84.5677%
O=C(Nc1cccnn1)N1CCC(=Cc2cccc(Oc3ccc(C(F)(F)F)cn3)c2)CC1	98.4854%
Cl.Cl.NC1(c2ccc(-c3nc4ccn5c(=O)[nH]nc5c4cc3-c3ccccc3)cc2)CCC1	85.9288%
CN(C)C(=O)c1ccc(-c2cc(C(=O)N[C@@H]3CCc4ccccc43)no2)cc1O	97.9607%
CCCc1cc(C)[nH]c(=O)c1CNC(=O)c1cc(-c2ccnc(N3CCN(C)CC3)c2)cc2c1cnn2C(C)C	92.8371%
C[C@@H](OC[C@@]1(c2ccccc2)CC[C@]2(CCC(=O)N2)CN1)c1cc(C(F)(F)F)cc(C(F)(F)F)c1 [ROLAPITANT]	97.3629%
Cc1[nH]cnc1CN1CCc2c(c3ccccc3n2C)C1=O [ALOSETRON]	98.6661%
COc1ccc2c(O[C@@H]3C[C@H]4C(=O)N[C@]5(C(=O)O)CC5/C=C\CCCCC[C@H](NC(=O)OC5CCCC5)C(=O)N4C3)cc(-c3csc(NC(=O)C(C)C)n3)nc2c1C (stereo partly specified) [BI 1230]	99.1645%

Same assay, conditions: human, 2 µM

SMILES	Cell Viability
CS(=O)(=O)c1cc(C2(NC(=O)c3cncc4c3cnn4-c3ccc(F)cc3)CC2)ccn1 [BI 639667]	99.2983%
